What was measured:
[1] = system: Porcine kidneys; test: Pulsatile perfusion preservation of explanted porcine kidneys; details: GSNO 90 micromolar, L-NIL 694 micromolar
Experimental: GSNO and L-NIL dihydrate hydrochloride were purchased from Alexis Corporation (San Diego, Calif.). Solution A was prepared by weighing out 30 milligrams of GSNO powder and adding it to 1 milliliter of Belzer Machine Perfusion solution (Transmed, Elk Grove, Minn.), and then injecting it into 1 liter of Belzer Perfusion solution while the perfusion solution was circulating through a Waters Instruments (Rochester, Minn.) kidney perfusion circuit (final concentration: 30 milligrams/liters; 90 micromolar). Solution B was prepared by weighing out 187 milligrams of L-NIL dihydrate hydrochloride powder and adding it to 3.5 milliliters of Belzer Machine Perfusion solution, and then injecting it into Solution A while the solution was circulating through a Waters Instruments kidney perfusion circuit (final concentration: 187 milligrams/liter; 694 micromolar).
Porcine kidneys were obtained following a warm ischemic time of 30-45 minutes. The kidneys were flushed with 1 L of Lactated Ringer's solution at 5 degrees C., and then flushed with 1 L Viaspan™ solution (DuPont, Wilmington, Del.) at 5 degrees C. The kidneys were then stored at 5 degrees C. for 3-30 h, at which time the kidneys were placed on a Waters Instruments (Rochester, Minn.) kidney perfusion circuit and perfused with 1 L of Belzer Machine Perfusion solution (Transmed, Elk Grove, Minn.). During the perfusion period, the kidneys were kept at a constant pressure of 40 mmHg. Eight kidneys were perfused with Belzer Machine Perfusion solution only, another eight kidneys were perfused with Belzer Machine Perfusion solution containing solution A (prepared as in Example 1), and a further eight kidneys were perfused with Belzer Machine Perfusion solution containing Solution B (prepared as in Example 1).
Hourly samples (3 ml total) were taken from each kidney for at least 5 hours, and in some cases 6 hours. Blood chemistry was analyzed using a GEMStat analyzer (Instruments Laboratory, Boston, Mass.). Statistical analyses were performed using Sigmastat software (SPSS, Chicago, Ill.).

[2] = system: porcine coronary arteries; details: porcine model of balloon angioplasty and subsequent endovascular radiation; cited from earlier work
[3] = statistically significant effect relative to control perfusion solution, 5-6 h

## N[C@@H](CCC(=O)N[C@@H](CSN=O)C(=O)NCC(=O)O)C(=O)O [GSNO, S-nitrosoglutathione]
[1]; statistically significant effect relative to control (Belzer Machine Perfusion solution only), constant pressure 40 mmHg, hourly samples 5-6 h
  Vascular Resistance: Lower
[1]; [3]
  Base Excess: More
  Ca2+: Higher
  Hematocrit: Lower
  Oxygen Saturation: Equal
[1]; statistically significant effect relative to control perfusion solution, 40 mmHg, 5-6 h
  Flow: Higher
[2]
  thrombosis: suppress thrombosis

— patent US6811965B2, “Kidney perfusion solution containing nitric oxide donor, inhibitor of NOS2, glutathione, gluconate and methods of use” (priority 2000, dated 2004)
